Entries after “also recorded” stand apart in the source; their conditions may differ.
What was measured:
[1] = system: senescent WI-38 fibroblasts; assay: MTT cell viability assay, IR-induced senescent WI-38 fibroblasts; format: cell-based, human; details: for senolytic activity (ability to selectively decrease cell viability of senescent cells): 72 h, ginger components at 100 μM, 6-shogaol 3.6 μM, 8-shogaol 33 μM, 6-gingerol 20 μM; for senescent cell viability: D+Q (dasatinib 250 nM + quercetin 10 μM), gingerenone A 20 μM, 6-shogaol 72.4 nM
Protocol: Cell culture and treatments: WI-38 human diploid fibroblasts (HDFs) were cultured in Dulbecco's modified Eagle's medium (DMEM) supplemented with 10% heat-inactivated fetal bovine serum (FBS), penicillin and streptomycin, and non-essential amino acids at 37° C. in a 5% CO2 incubator. HDFs were rendered senescent by exposure to 10 Gy of ionizing radiation (IR) and then cultured for an additional ten days. Proliferating and senescent WI-38 cells were seeded in triplicate overnight at 2×10^5 cells/well (in 6 well plates) to achieve ˜60% confluence by the next day. Cells were then treated with the extracts for times indicated. […]
MTT cell viability: The MTT assay (Bio Vision Milpitas, CA) was carried out following the manufacturer's protocol. Briefly, the media was gently removed from each well and 50 μl of serum-free medium+50 μl of Solution A were added to each well. The plates were incubated at 37° C. for MTT reduction into formazan for 3 h. Next, 150 μl Solution B was added to each well and the plate was covered with foil and shaken at 600 rpm for 15 min. The absorbance was measured at 590 nm using Enspire, Perkin Elmer Multimode plate reader. […]
WI-38 fibroblasts were rendered senescent by exposure to ionizing radiation (IR, 10 Gy) and cultured for an additional 10 days. […] Data represent the means and standard error from three biological replicates. The major components of ginger extract, namely 6-gingerol, 8-gingerol, 10-gingerol, 6-shogaol, 8-shogaol, gingerenone A, and zingerone, were screened for their ability to selectively decrease cell viability of senescent cells using the MTT assay (FIG. 10A).

[2] = system: proliferating WI-38 fibroblasts; assay: MTT cell viability assay, proliferating WI-38 fibroblasts; format: cell-based, human; details: 48 h; D+Q (dasatinib 250 nM + quercetin 10 μM), gingerenone A 20 μM, 6-shogaol 72.4 nM
Protocol: Cell culture and treatments: WI-38 human diploid fibroblasts (HDFs) were cultured in Dulbecco's modified Eagle's medium (DMEM) supplemented with 10% heat-inactivated fetal bovine serum (FBS), penicillin and streptomycin, and non-essential amino acids at 37° C. in a 5% CO2 incubator. HDFs were rendered senescent by exposure to 10 Gy of ionizing radiation (IR) and then cultured for an additional ten days. Proliferating and senescent WI-38 cells were seeded in triplicate overnight at 2×10^5 cells/well (in 6 well plates) to achieve ˜60% confluence by the next day. Cells were then treated with the extracts for times indicated.
In 24-well plates, cells were treated with multiple dilutions (1:200 and 1:500) of Harpagophytum procumbens (Devil's Claw) (herb to menstruum ratio, 1:3), Uncaria tomentosa (Cat's Claw) (herb to menstruum ratio, 1:3), Zingiber officinale Rosc. […]
MTT cell viability: The MTT assay (Bio Vision Milpitas, CA) was carried out following the manufacturer's protocol. […] The absorbance was measured at 590 nm using Enspire, Perkin Elmer Multimode plate reader.
Four plant extracts were screened for senolytic activity, including extracts from Harpagophytum procumbens (Devil's Claw), Uncaria tomentosa (Cat's Claw), Zingiber officinale Rosc. […] In FIG. 8B, the impact on ginger extract on proliferating and senescent cells on cell survival was assessed by the MTT cell viability assay. […]

[3] = system: SASP cytokines and chemokines secreted by senescent WI-38 fibroblasts; assay: Secreted protein analysis (ELISA, Luminex multiplex, V-PLEX) of SASP factors; format: cell-based, human; details: 24 h
Protocol: Secreted protein analysis-ELISA, Luminex Multiplex and V-PLEX: Media was collected at the earliest timepoint (24 h after treatments) to avoid cell death that could interfere with the assay. The media was centrifuged at 1000×g for 5 min to remove debris. The secretion of IL-6 was measured by the Quantikine ELISA Kit (R&D systems) and the expression of pro-inflammatory cytokines and chemokines [IL-6, TNFα, CCL2 (MCP-1), IL-8, IFNß] was also assessed by multiplex assays (customized Luminex plate, R&D) according to the manufacturer's instructions. The V-PLEX Plus Proinflammatory Panel 1 Human Kit and the Chemokine Panel 1 preparation and detection were carried out following the manufacturer's protocol (Mesoscale Diagnostics) using >80% confluency of proliferating or senescent cells on 24-well plates. Briefly, different concentrations of standards and samples were added to the plates, and they were incubated for 2 h on a microplate shaker. The plates were washed, and the corresponding detection antibody mixture was added to each well and incubated for 1 h with shaking. The plates were washed twice then Read buffer was added to each well. The plates were read on the MESO Quickplex SQ 120 (MSD, Rockville, MD) and protein concentrations were determined using MSD Discovery workbench 4.0. The effects of gingerenone A, 6-shogaol and D+Q on cytokines and chemokines that are known to be part of the senescence-associated secretory phenotype (SASP) were tested. WI-38 fibroblasts were rendered senescent by exposure to ionizing radiation (IR, 10 Gy) and cultured for an additional 10 days. Cells were then treated with gingerenone A (20 μM) and 6-shogaol (72.4 nM) and incubated for 24 h. CCL-2 (MCP-1) and IL-10 were measured using the Bio-plex (Multiplex); IL6 was measured using Quantikine IL-6 (R&D) (FIG. 12A). Data were normalized to cell number/total protein content. Data in graphs represent the means and standard error from three biological replicates. […] Ratios of cleaved pro-caspase 3 to total caspase 3, normalized to ACTB levels, are shown as relative to control proliferating cells. Cytokines (FIG. 13A) and chemokines (FIG. 13B) were measured using the V-plex panel (MSD) after treatment for 24 h with the indicated drugs. Relative secretion was measured as pg/ml vs control normalized on TE. Data in the graphs represent the means and standard error from three biological replicates.

[4] = system: p53, Bcl-XL, cleaved caspase-3 in proliferating and senescent WI-38 fibroblasts; assay: Western blot protein analysis (p53, Bcl-XL, cleaved caspase-3); format: cell-based, human; details: 48 h, senescent cells
Protocol: Protein analysis: Cells were lysed in RIPA lysis buffer (Pierce, ThermoFisher) containing protease and phosphatase inhibitors (Roche) and incubated on ice for 10 min. The lysates were then sonicated for 5 min and centrifuged for 10 min at 4° C. to remove the insoluble fraction. The remaining supernatant was the whole-cell lysate. Lysates were separated by SDS-polyacrylamide gel electrophoresis (SDS-PAGE) and transferred onto nitrocellulose membranes (Biorad). Incubations with primary antibodies recognizing p21, p53, Beta-Actin (ACTB) (Santa Cruz Biotechnology), as well as caspase-3 (Abcam) and Bcl-XL (Cell Signaling) were followed by incubations with the appropriate secondary antibodies conjugated with horseradish peroxidase (GE Healthcare). Signals were developed using Enhanced Chemiluminescence (ECL) and acquired by using the ChemiDoc MP Imaging System (BioRad).
The effects of gingerenone A, 6-shogaol and D+Q on cytokines and chemokines that are known to be part of the senescence-associated secretory phenotype (SASP) were tested. WI-38 fibroblasts were rendered senescent by exposure to ionizing radiation (IR, 10 Gy) and cultured for an additional 10 days. Cells were then treated with gingerenone A (20 μM) and 6-shogaol (72.4 nM) and incubated for 24 h. CCL-2 (MCP-1) and IL-10 were measured using the Bio-plex (Multiplex); IL6 was measured using Quantikine IL-6 (R&D) (FIG. 12A). Data were normalized to cell number/total protein content. Data in graphs represent the means and standard error from three biological replicates. […] Ratios of cleaved pro-caspase 3 to total caspase 3, normalized to ACTB levels, are shown as relative to control proliferating cells. Cytokines (FIG. 13A) and chemokines (FIG. 13B) were measured using the V-plex panel (MSD) after treatment for 24 h with the indicated drugs. Relative secretion was measured as pg/ml vs control normalized on TE. Data in the graphs represent the means and standard error from three biological replicates.
To determine whether gingerenone A and 6-shogaol might influence the apoptotic pathway, their effect on the levels of cleaved caspase-3 (pro-apoptotic marker), and Bcl-XL (anti-apoptotic protein) (FIG. 12B) was tested.

[5] = system: circulating cytokines/chemokines in serum; assay: Chronic administration, serum cytokines/chemokines; format: in vivo, C57BL/6JN mice; details: GinA 10 mg/kg/day, modGinA 27 mg/kg/day, 10 weeks
Protocol: (§1) A chronic administration of GinA (10 mg/kg/day; 1.8 mg/mL) and modGinA (27 mg/kg/day, 4.8 mg/mL) or vehicle (high oleic sunflower oil) was carried out daily for 10 weeks in C57BL/6JN mice (79-80 weeks old). The serum was analyzed for circulating levels of cytokines/chemokines during treatment (9th week) and 10 days after cessation of drug administration. […] FIGS. 16A and 16B show circulating levels of IL-5 in serum during treatment (9 weeks; FIG. 16A) and after treatment (FIG. 16B) with daily oral administration of 10 mg/kg of GinA or 27 mg/kg of modGinA. IL-5 was significant in post treatment using the unadjusted Kruskal-Wallace test between the three groups (vehicle, GinA and modGinA) and unadjusted unpaired t-test between either group and vehicle and during treatment using unadjusted unpaired t-test in the modGinA treatment group.

[6] = system: circulating metabolites and lipid species in serum; assay: Chronic administration, serum metabolomic and lipid analysis; format: in vivo, C57BL/6J male mice; details: daily oral GinA 10 mg/kg or modGinA 27 mg/kg, at 9 weeks, compared to vehicle
Protocol: as §1
Additionally, modGinA administration increased circulating levels of multiple DHA- and EPA-containing lipid species, including phospholipids and cholesterol esters during treatment.

in vivo = details: male, C57BL/6J, mouse, po, 10 mg/kg
Protocol: Gingerenone A Quantification: The analysis of Gingerenone A, EPA and DHA was accomplished using a Phenomencx® Security Guard® C18 column (4 x3 mm ID, Phenomenex, Torrance, CA) and a Waters™ Xbridge® C18 3.5 μm column (2.1 mm×100 mm, Waters Corporation, Milford, MA). The mobile phase consisted of 5 mM ammonium formate and 0.1% formic acid as component A and acetonitrile as component B. A linear gradient was run as follows: 0 min 10% B; 1 min 10% B, 5 min 90% B; 10 min 90% B; 10.1 min 10% B at a flow rate of 0.2 mL/min, with an oven temperature at 40° C. The total run time was 15 min per sample. […] For DHA, the TIS compound parameter settings (declustering potential, collision energy and cell exit potential) for MRM was −135 V, —14 V and −13 V and for naringenin MRM was −100 V, —24 V and −10 V, and MRM2 was −100V, —33 V and −10 V. The data were acquired and analyzed using Analyst version 1.4.2 (Applied Biosystems). The relative quantitation of gingerenone A, EPA and DHA was accomplished by using the area under the curves. […] For the quantitation of gingerenone A, a seven-point calibration curve (12.5 to 0.097 ng/ml) was carried out. […]
The peak areas in circulating gingerenone A levels were measured as described above in the Methods section.

## CCCCC[C@H](O)CC(=O)CCc1ccc(O)c(OC)c1 [6-gingerol]
[1]
  senolytic activity (ability to selectively decrease cell viability of senescent cells): only 6-shogaol and gingerenone A displayed senolytic activity

## COc1cc(CCC(C)=O)ccc1O [zingerone]
[1]
  senolytic activity (ability to selectively decrease cell viability of senescent cells): only 6-shogaol and gingerenone A displayed senolytic activity

## CCCCC/C=C/C(=O)CCc1ccc(O)c(OC)c1 [6-shogaol]
[1]; 48 h
  senescent cell viability: moderate degree of cell death
[1]
  senolytic activity (ability to selectively decrease cell viability of senescent cells): displayed senolytic activity
[2]
  effect on proliferating cells: significant increase
[3]; 72.4 nM
  changes in any of the cytokines and chemokines measured: did not induce major changes
[4]
  expression of anti-apoptotic protein Bcl-XL: reduced
  levels of pro-apoptotic protein cleaved caspase-3: increase

## CCCCCCC/C=C/C(=O)CCc1ccc(O)c(OC)c1 [8-shogaol]
[1]
  senolytic activity (ability to selectively decrease cell viability of senescent cells): only 6-shogaol and gingerenone A displayed senolytic activity

## COc1cc(CC/C=C/C(=O)CCc2ccc(O)c(OC)c2)ccc1O [gingerenone A, Gingerenone A]
[1]; 20 μM, 48 h, p=0.04
  senescent cell viability relative to proliferating cells: significant decrease; also recorded: significantly decreased
[1]; 48 h, 20 μM, compared to D+Q
  selectivity for senescent over proliferating cells: higher selectivity
[1]; 48 h
  senescent cell viability: significantly decreased
[1]
  senolytic activity (ability to selectively decrease cell viability of senescent cells): displayed senolytic activity
[2]
  effect on proliferating cells: did not show any significant effect
[3]; 20 μM
  level of IL-1β: increased
  level of IL-13: increased
[3]; 20 μM, multiplex ELISA (FIG. 12A)
  level of IL-10: increased
[3]; V-Plex (FIG. 13A)
  level of IL-10: unchanged
[3]; gingerenone A 20 μM, D+Q
  level of IL-8: increased
  secreted level of CCL2 (MCP-1): reduced
  secreted level of IL-6: reduced
[3]; gingerenone A 20 μM, D+Q, V-plex
  secreted level of IP-10: reduced
[4]
  expression of anti-apoptotic protein Bcl-XL: reduced
  levels of pro-apoptotic protein cleaved caspase-3: increase
[5]; post treatment, unadjusted unpaired t-test vs vehicle
  serum IL-5: reduced
[5]; ten days after termination
  serum IL-2: reduced
[6]
  serum concentration of beta-alanine: did not increase
  serum concentration of choline: did not increase
In vivo
  AUC: 1.25 ng·h/mL

## CCCCCCCCC[C@H](O)CC(=O)CCc1ccc(O)c(OC)c1 [10-gingerol]
[1]
  senolytic activity (ability to selectively decrease cell viability of senescent cells): only 6-shogaol and gingerenone A displayed senolytic activity

## CCCCCCC[C@H](O)CC(=O)CCc1ccc(O)c(OC)c1 [8-gingerol]
[1]
  senolytic activity (ability to selectively decrease cell viability of senescent cells): only 6-shogaol and gingerenone A displayed senolytic activity
